Data on 21 compounds can be found in PubChem BioAssay AID248 (DTP/NCI, 2004).

“And” between values parts separate entries of the source, which are not always exact repeats. Equal entries are not always repeated. Inconclusive results and toxic doses are left out. Peptide text beside a SMILES is read from it.

This assay deals with L1210 leukemia ip in BDF1 mice, survival T/C. Briefly: NCI In Vivo Anticancer Drug Screen. Data for tumor model L1210 Leukemia (intraperitoneal) in B6D2F1 (BDF1) mice. Conditions: endpoint: mean survival time, higher = longer survival. The gist of the method:
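Read-out is survival time, reported as the treated-group measurement over the vehicle-control measurement.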

[1] abbreviates: dose: 100.0 mg/kg/injection, schedule: Q04DX002 (ip), vehicle: Klucel (hydroxypropylcellulose) (HPC).
Setting [2] is: dose: 200.0 mg/kg/injection, schedule: Q04DX002 (ip), vehicle: Klucel (hydroxypropylcellulose) (HPC).
The mark [3] stands for this setting: dose: 400.0 mg/kg/injection, schedule: Q04DX002 (ip), vehicle: Klucel (hydroxypropylcellulose) (HPC).
[4] abbreviates: dose: 100.0 mg/kg/injection, schedule: Q01DX009 (ip), vehicle: Klucel (hydroxypropylcellulose) (HPC).
[5] abbreviates: dose: 100.0 mg/kg/injection, schedule: Q04DX003 (ip), vehicle: saline with Tween-80.
[6] abbreviates: dose: 200.0 mg/kg/injection, schedule: Q04DX003 (ip), vehicle: saline with Tween-80.
[7] abbreviates: dose: 400.0 mg/kg/injection, schedule: Q04DX003 (ip), vehicle: saline with Tween-80.
Where [8] appears, read: dose: 100.0 mg/kg/injection, schedule: Q01DX001 (ip), vehicle: other.
[9] abbreviates: dose: 200.0 mg/kg/injection, schedule: Q01DX001 (ip), vehicle: other.
The mark [10] stands for this setting: dose: 400.0 mg/kg/injection, schedule: Q01DX001 (ip), vehicle: other.
Where [11] appears, read: dose: 50.0 mg/kg/injection, schedule: Q01DX009 (ip), vehicle: saline with Tween-80.
[12] abbreviates: dose: 100.0 mg/kg/injection, schedule: Q01DX009 (ip), vehicle: saline with Tween-80.
Where [13] appears, read: dose: 200.0 mg/kg/injection, schedule: Q01DX009 (ip), vehicle: saline with Tween-80.
[14] abbreviates: dose: 400.0 mg/kg/injection, schedule: Q01DX009 (ip), vehicle: saline with Tween-80.
Setting [15] is: dose: 100.0 mg/kg/injection, schedule: Q04DX002 (ip), vehicle: saline.

For the compound `CC(C)(C)OC(=O)N1C2c3ccccc3C1C1C2N=NN1c1ccccc1` (centres undefined), the T/C was 110 % of control (dose: 100.0 mg/kg/injection, schedule: Q01DX001 (ip), vehicle: saline); 95 % of control (dose: 200.0 mg/kg/injection, schedule: Q01DX001 (ip), vehicle: saline); 91 % of control (dose: 400.0 mg/kg/injection, schedule: Q01DX001 (ip), vehicle: saline).
For `CC(C)OC(=O)NN1CCCCCC1`, the T/C runs as follows: under setting [1], 92 % of control; under setting [2], 105 % of control; under setting [3], 96 % of control.
Regarding `Cc1ccc(C(=O)C=O)c(C)c1`, the T/C reads like this: under setting [4], 96 % of control; (dose: 200.0 mg/kg/injection, schedule: Q01DX009 (ip), vehicle: Klucel (hydroxypropylcellulose) (HPC)) 105 % of control; (dose: 400.0 mg/kg/injection, schedule: Q01DX009 (ip), vehicle: Klucel (hydroxypropylcellulose) (HPC)) 109 % of control.
Regarding `C=CCOP(=O)(N1CC1CC)N1CC1CC` (centres undefined), the T/C is 103 % of control (dose: 10.0 mg/kg/injection, schedule: Q01DX015 (ip), vehicle: saline); 96 % of control (dose: 20.0 mg/kg/injection, schedule: Q01DX015 (ip), vehicle: saline); 102 % of control (dose: 40.0 mg/kg/injection, schedule: Q01DX015 (ip), vehicle: saline); 108 % of control (dose: 80.0 mg/kg/injection, schedule: Q01DX015 (ip), vehicle: saline).
`CC(=O)C(C(=N)C#N)C(=O)Nc1ccccc1` (centres undefined): the T/C is, setting by setting: under setting [5], 101 % of control; under setting [6], 104 % of control; under setting [7], 101 % of control.
As for `S=C(NCCN1CCOCC1)Nc1ccccc1`, the T/C is 105 % of control (dose: 50.0 mg/kg/injection, schedule: Q01DX001 (ip), vehicle: other); 94 % of control under setting [8]; 94 % of control under setting [9]; 92 % of control under setting [10].
`CCC[CH2][Sn]([CH2]CCC)([CH2]CCC)[O]C(=O)CC[S][Sn]([CH2]CCC)([CH2]CCC)[CH2]CCC`: the T/C (dose: 0.5 mg/kg/injection, schedule: Q01DX015 (ip), vehicle: saline) is 97 % of control; the T/C (dose: 1.0 mg/kg/injection, schedule: Q01DX015 (ip), vehicle: saline) is 100 % of control; the T/C (dose: 2.0 mg/kg/injection, schedule: Q01DX015 (ip), vehicle: saline) was 95 % of control; the T/C (dose: 2.5 mg/kg/injection, schedule: Q01DX001 (ip), vehicle: saline) was 103 % of control; the T/C (dose: 4.0 mg/kg/injection, schedule: Q01DX015 (ip), vehicle: saline) is 87 % of control; the T/C (dose: 5.0 mg/kg/injection, schedule: Q01DX001 (ip), vehicle: saline) is 100 % of control. Also, the T/C is, setting by setting: (dose: 10.0 mg/kg/injection, schedule: Q01DX001 (ip), vehicle: saline) 105 % of control; (dose: 20.0 mg/kg/injection, schedule: Q01DX001 (ip), vehicle: saline) 97 % of control.
For `O=C1CCCCc2c1ccc(O)c2[N+](=O)[O-]`, the T/C under setting [11] was 88 % of control.
For `CCOC(=O)Nc1cc(Cl)cc(NC(=O)OCC)n1`, the T/C is, setting by setting: under setting [8], 94 % of control; under setting [12], 96 % of control; under setting [5], 107 % of control; under setting [9], 102 % of control; under setting [13], 106 % of control; under setting [6], 100 % of control. Further, the T/C runs as follows: under setting [10], 96 % of control; under setting [14], 96 % of control; under setting [7], 108 % of control.
`Cc1cccc(C)c1NC(=O)c1ccccc1Cl`: the T/C by setting is: under setting [12], 104 % of control; under setting [13], 97 % of control; under setting [14], 104 % of control.
Take `NC(N)=NCCCC(N)C(=O)NC(CCC(=O)O)C(=O)O` (stereo not drawn) (H-Arg-Glu-OH; configuration not given here): the T/C runs as follows: (dose: 25.0 mg/kg/injection, schedule: Q04DX002 (ip), vehicle: saline) 98 % of control; (dose: 50.0 mg/kg/injection, schedule: Q04DX002 (ip), vehicle: saline) 121 % of control; under setting [15], 110 % of control.
In the case of `CCCC(O)(CC)C1CCCC1C` (centres undefined), the T/C reads like this: under setting [11], 105 % of control; under setting [12], 111 % of control; under setting [13], 94 % of control.
On to `O=C(CN1CC1)Nc1ccc(NC(=O)CN2CC2)cc1`, for which the T/C reads like this: (dose: 1.5 mg/kg/injection, schedule: Q01DX009 (ip), vehicle: carboxymethylcellulose (CMC)) 116 % of control and 117 % of control; (dose: 7.3 mg/kg/injection, schedule: Q01DX001 (ip), vehicle: carboxymethylcellulose (CMC)) 116 % of control; (dose: 11.0 mg/kg/injection, schedule: Q01DX009 (ip), vehicle: carboxymethylcellulose (CMC)) 168 % of control; (dose: 11.1 mg/kg/injection, schedule: Q01DX009 (ip), vehicle: carboxymethylcellulose (CMC)) 161 % of control; (dose: 16.6 mg/kg/injection, schedule: Q01DX009 (ip), vehicle: carboxymethylcellulose (CMC)) 96 % of control and 211 % of control; (dose: 25.0 mg/kg/injection, schedule: Q01DX001 (ip), vehicle: carboxymethylcellulose (CMC)) 152 % of control and 160 % of control. The T/C was 103 % of control (dose: 25.0 mg/kg/injection, schedule: Q01DX009 (ip), vehicle: carboxymethylcellulose (CMC)); 163 % of control (dose: 37.5 mg/kg/injection, schedule: Q01DX001 (ip), vehicle: carboxymethylcellulose (CMC)); 151 % of control (dose: 50.0 mg/kg/injection, schedule: Q01DX001 (ip), vehicle: carboxymethylcellulose (CMC)).
Consider `CC(C)(C)C(=O)C(Br)Br`, for which the T/C runs as follows: (dose: 25.0 mg/kg/injection, schedule: Q04DX002 (ip), vehicle: Klucel (hydroxypropylcellulose) (HPC)) 101 % of control; (dose: 50.0 mg/kg/injection, schedule: Q04DX002 (ip), vehicle: Klucel (hydroxypropylcellulose) (HPC)) 96 % of control; under setting [1], 97 % of control and 101 % of control.
As for `CCOC(=O)CC(N)=O`, the T/C was 111 % of control under setting [15]; 96 % of control (dose: 200.0 mg/kg/injection, schedule: Q04DX002 (ip), vehicle: saline); 104 % of control (dose: 400.0 mg/kg/injection, schedule: Q04DX002 (ip), vehicle: saline).
On to `CS(=O)(=O)OCCN(CCOS(C)(=O)=O)c1ccc(C=Nc2ccc(-c3cnc(-c4ccc(Cl)cc4)s3)cc2)c(Cl)c1`, for which the T/C (dose: 25.0 mg/kg/injection, schedule: Q01DX009 (ip), vehicle: Klucel (hydroxypropylcellulose) (HPC)) was 98 % of control; the T/C (dose: 50.0 mg/kg/injection, schedule: Q01DX009 (ip), vehicle: Klucel (hydroxypropylcellulose) (HPC)) is 107 % of control; the T/C under setting [4] is 109 % of control.
`CCOC(=O)C(=N\Nc1cccc(C)c1C)/C(C)=N\NC(N)=S`: the T/C (dose: 75.0 mg/kg/injection, schedule: Q01DX001 (ip), vehicle: saline) was 94 % of control; the T/C (dose: 150.0 mg/kg/injection, schedule: Q01DX001 (ip), vehicle: saline) is 97 % of control; the T/C (dose: 300.0 mg/kg/injection, schedule: Q01DX001 (ip), vehicle: saline) is 97 % of control.
As for `CCN(CCOC(=O)Nc1cc([N+](=O)[O-])ccc1C)c1ccccc1`, the T/C reads like this: under setting [1], 87 % of control; under setting [2], 94 % of control; under setting [3], 90 % of control.
As to `C1CC[C@@H]2NCCC[C@H]2C1`, the T/C reads like this: (dose: 100.0 mg/kg/injection, schedule: Q01DX001 (ip), vehicle: carboxymethylcellulose (CMC)) 103 % of control; (dose: 200.0 mg/kg/injection, schedule: Q01DX001 (ip), vehicle: carboxymethylcellulose (CMC)) 92 % of control.
In the case of `CN(C)C=Nc1ncnc2nc[nH]c12`, the T/C is, setting by setting: (dose: 100.0 mg/kg/injection, schedule: Q04DX002 (ip), vehicle: saline with Tween-80) 102 % of control; (dose: 200.0 mg/kg/injection, schedule: Q04DX002 (ip), vehicle: saline with Tween-80) 102 % of control; (dose: 400.0 mg/kg/injection, schedule: Q04DX002 (ip), vehicle: saline with Tween-80) 109 % of control.
As for `CC(=O)c1c[nH]c2ccccc12`, the T/C was 101 % of control (dose: 100.0 mg/kg/injection, schedule: Q01DX009 (ip), vehicle: saline); 108 % of control (dose: 200.0 mg/kg/injection, schedule: Q01DX009 (ip), vehicle: saline); 95 % of control (dose: 400.0 mg/kg/injection, schedule: Q01DX009 (ip), vehicle: saline).
